Results as given in patent US20250230153A1, “2,3-DIHYDROBENZO[B][1,4]DIOXIN-6-YL CONTAINING COMPOUNDS USEFUL AS IMMUNOMODULATORS” (BRISTOL-MYERS SQUIBB COMPANY, priority 2021, published 2025).

Biological target: PD-1/PD-L1 (Homo sapiens (Human), UniProt Q9NZQ7)
Assay: PD-1/PD-L1 Homogenous Time-Resolved Fluorescence (HTRF) binding assay
Conditions: PD-1-Ig (20 nM final)/PD-L1-His (10 nM final) binding assay
Description: The ability of the compounds of the invention to bind to PD-L1 was investigated using a PD-1/PD-L1 Homogenous Time-Resolved Fluorescence (HTRF) binding assay.
The interaction of PD-1 and PD-L1 can be assessed using soluble, purified preparations of the extracellular domains of the two proteins. The PD-1 and PD-L1 protein extracellular domains were expressed as fusion proteins with detection tags, for PD-1, the tag was the Fc portion of Immunoglobulin (PD-1-Ig) and for PD-L1 it was the 6 histidine motif (PD-L1-His). All binding studies were performed in an HTRF assay buffer consisting of dPBS supplemented with 0.1% […] bovine serum albumin and 0.05% (v/v) Tween-20. For the h/PD-L1-His binding assay, inhibitors were pre-incubated with PD-L1-His (10 nM final) for 15m in 4 μl of assay buffer, followed by addition of PD-1-Ig (20 nM final) in 1 μl of assay buffer and further incubation for 15 m. HTRF detection was achieved using europium crypate-labeled anti-Ig (1 nM final) and allophycocyanin (APC) labeled anti-His (20 nM final). Antibodies were diluted in HTRF detection buffer and 5 μl was dispensed on top of the binding reaction. The reaction mixture was allowed to equilibrate for 30 minutes and the resulting signal (665 nm/620 nm ratio) was obtained using an EnVision fluorometer. Additional binding assays were established between the human proteins PD-1-Ig/PD-L2-His (20 & 5 nM, respectively) and CD80-His/PD-L1-Ig (100 & 10 nM, respectively).
Recombinant Proteins: Human PD-1 (25-167) with a C-terminal human Fc domain of immunoglobulin G (Ig) epitope tag [hPD-1 (25-167)-3S-IG] and human PD-L1 (18-239) with a C-terminal His epitope tag [hPD-L1(18-239)-TVMV-His] were expressed in HEK293T cells and purified sequentially by ProteinA affinity chromatography and size exclusion chromatography. Human PD-L2-His and CD80-His was obtained through commercial sources.
Homogenous Time-Resolved Fluorescence (HTRF) Assays of Binding of Soluble PD-1 to Soluble PD-L1. Soluble PD-1 and soluble PD-L1 refers to proteins with carboxyl-end truncations that remove the transmembrane-spanning regions and are fused to heterologous sequences, specifically the Fc portion of the human immunoglobuling G sequence (Ig) or the hexahistidine epitope tag (His). All binding studies were performed in an HTRF assay buffer consisting of dPBS supplemented with 0.1% (w/v) bovine serum albumin and 0.05% (v/v) Tween-20. For the PD-1-Ig/PD-L1-His binding assay, inhibitors were pre-incubated with PD-L1-His (10 nM final) for 15m in 4 μl of assay buffer, followed by addition of PD-1-Ig (20 nM final) in 1 μl of assay buffer and further incubation for 15 m. PD-L1 fusion proteins from either human, cynomologous macaques, mouse, or other species were used. HTRF detection was achieved using europium crypate-labeled anti-Ig monoclonal antibody (1 nM final) and allophycocyanin (APC) labeled anti-His monoclonal antibody (20 nM final). Antibodies were diluted in HTRF detection buffer and 5 μl was dispensed on top of binding reaction. The reaction was allowed to equilibrate for 30 minutes and signal (665 nm/620 nm ratio) was obtained using an EnVision fluorometer. Additional binding assays were established between PD-1-Ig/PD-L2-His (20 and 5 nM, respectively), CD80-His/PD-L1-Ig (100 and 10 nM, respectively) and CD80-His/CTLA4-Ig (10 and 5 nM, respectively).
Recombinant Proteins. Carboxyl-truncated human PD-1 (amino acids 25-167) with a C-terminal human Ig epitope tag [hPD-1 (25-167)-3S-IG] and human PD-L1 (amino acids 18-239) with a C-terminal His epitope tag [hPD-L1(19-239)-tobacco vein mottling virus protease cleavage site (TVMV)-His] were expressed in HEK293T cells and purified sequentially by recombinant Protein A affinity chromatography and size exclusion chromatography. Human PD-L2-His (Sino Biologicals), CD80-His (Sino Biologicals), CTLA4-Ig (RnD Systems) were all obtained through commercial sources.

Sequence of PD-1/PD-L1 (Q9NZQ7 18-239): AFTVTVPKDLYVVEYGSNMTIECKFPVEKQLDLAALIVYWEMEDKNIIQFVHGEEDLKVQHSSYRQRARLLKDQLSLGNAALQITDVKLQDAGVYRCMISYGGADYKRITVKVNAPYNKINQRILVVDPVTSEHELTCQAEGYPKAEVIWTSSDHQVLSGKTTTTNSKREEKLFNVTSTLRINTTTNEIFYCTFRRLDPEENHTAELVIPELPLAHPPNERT

Question: For `Cc1c(COc2cc(OC[C@@H](C)CO)c(CN[C@](C)(CO)C(=O)O)cc2Cl)cccc1-c1ccc2c(c1)OCCO2` [Example 1035, (R)-2-((5-chloro-4-((3-(2,3-dihydrobenzo[b][1,4]dioxin-6-yl)-2-methylbenzyl)oxy)-2-((S)-3-hydroxy-2-methylpropoxy)benzyl)amino)-3-hydroxy-2-methylpropanoic acid], which IC50 is on record?
Answer: The IC50 was 3.4 nM.

Question: With `Cc1c(COc2cc(OC[C@@H](C)CO)c(CNC(C)(CO)CO)cc2Cl)cccc1-c1ccc2c(c1)OCCO2` [Example 1036, (S)-2-((5-Chloro-4-((3-(2,3-dihydrobenzo[b][1,4]dioxin-6-yl)-2-methylbenzyl)oxy)-2-(3-hydroxy-2-methylpropoxy)benzyl)amino)-2-methylpropane-1,3-diol] as the molecule, how does the IC50 read?
Answer: Its IC50 is 4.6 nM.

Question: `Cc1c(COc2cc(OCCN3CCOCC3)c(CN[C@](C)(CO)C(=O)O)cc2Cl)cccc1-c1ccc2c(c1)OCCO2` [Example 1037, (R)-2-((5-Chloro-4-((3-(2,3-dihydrobenzo[b][1,4]dioxin-6-yl)-2-methylbenzyl)oxy)-2-(2-morpholinoethoxy)benzyl)amino)-3-hydroxy-2-methylpropanoic acid] was tested. Which IC50 did it give?
Answer: The IC50 was 1.8 nM.

Question: `Cc1c(COc2cc(OCCN3CCOCC3)c(CN3CCCC[C@H]3C(=O)O)cc2Cl)cccc1-c1ccc2c(c1)OCCO2` [Example 1038, (S)-1-(5-Chloro-4-((3-(2,3-dihydrobenzo[b][1,4]dioxin-6-yl)-2-methylbenzyl)oxy)-2-(2-morpholinoethoxy)benzyl)piperidine-2-carboxylic acid] was tested. Which IC50 did it give?
Answer: The IC50 was 5.7 nM.

Question: With `Cc1c(COc2cc(OCCN3CCOCC3)c(CNC(C)(CO)CO)cc2Cl)cccc1-c1ccc2c(c1)OCCO2` [Example 1039, 2-((5-Chloro-4-((3-(2,3-dihydrobenzo[b][1,4]dioxin-6-yl)-2-methylbenzyl)oxy)-2-(2-morpholinoethoxy)benzyl)amino)-2-methylpropane-1,3-diol] as the molecule, how does the IC50 read?
Answer: Its IC50 is 2.3 nM.

Question: With `Cc1c(COc2cc(OCC3CCCCC3)c(CN3CCCC[C@H]3C(=O)O)cc2Cl)cccc1-c1ccc2c(c1)OCCO2` [Example 1040, (S)-1-(5-Chloro-2-(cyclohexylmethoxy)-4-((3-(2,3-dihydrobenzo[b][1,4]dioxin-6-yl)-2-methylbenzyl)oxy)benzyl)piperidine-2-carboxylic acid] as the molecule, how does the IC50 read?
Answer: The IC50 was 164 nM.

Question: How did the IC50 turn out when `Cc1c(COc2cc(OCC3CCCCC3)c(CNC(C)(CO)CO)cc2Cl)cccc1-c1ccc2c(c1)OCCO2` [Example 1041, 2-((5-Chloro-2-(cyclohexylmethoxy)-4-((3-(2,3-dihydrobenzo[b][1,4]dioxin-6-yl)-2-methylbenzyl)oxy)benzyl)amino)-2-methylpropane-1,3-diol] was run?
Answer: The IC50 was 50.5 nM.

Question: With `Cc1c(COc2cc(OCCN3CCCCC3)c(CN3CCCC[C@H]3C(=O)O)cc2Cl)cccc1-c1ccc2c(c1)OCCO2` [Example 1042, (S)-1-(5-Chloro-4-((3-(2,3-dihydrobenzo[b][1,4]dioxin-6-yl)-2-methylbenzyl)oxy)-2-(2-(piperidin-1-yl)ethoxy)benzyl)piperidine-2-carboxylic acid] as the molecule, how does the IC50 read?
Answer: The IC50 was 0.6 nM.

Question: Which IC50 does the source give for `Cc1c(COc2cc(OCCN3CCCCC3)c(CN[C@](C)(CO)C(=O)O)cc2Cl)cccc1-c1ccc2c(c1)OCCO2` [Example 1043, (R)-2-((5-Chloro-4-((3-(2,3-dihydrobenzo[b][1,4]dioxin-6-yl)-2-methylbenzyl)oxy)-2-(2-(piperidin-1-yl)ethoxy)benzyl)amino)-3-hydroxy-2-methylpropanoic acid] here?
Answer: Its IC50 is 0.4 nM.

Question: With `Cc1c(COc2cc(OCCN3CCCCC3)c(CNC(C)(CO)CO)cc2Cl)cccc1-c1ccc2c(c1)OCCO2` [Example 1044, 2-((5-Chloro-4-((3-(2,3-dihydrobenzo[b][1,4]dioxin-6-yl)-2-methylbenzyl)oxy)-2-(2-(piperidin-1-yl)ethoxy)benzyl)amino)-2-methylpropane-1,3-diol] as the molecule, how does the IC50 read?
Answer: The IC50 was 2.1 nM.

Question: With `Cc1c(COc2cc(OCC3CCOCC3)c(CN[C@](C)(CO)C(=O)O)cc2Cl)cccc1-c1ccc2c(c1)OCCO2` [Example 1045, (R)-2-((5-Chloro-4-((3-(2,3-dihydrobenzo[b][1,4]dioxin-6-yl)-2-methylbenzyl)oxy)-2-((tetrahydro-2H-pyran-4-yl)methoxy)benzyl)amino)-3-hydroxy-2-methylpropanoic acid] as the molecule, how does the IC50 read?
Answer: Its IC50 is 4.4 nM.

Question: Which IC50 does the source give for `Cc1c(COc2cc(OCC3CCOCC3)c(CN3CCCC[C@H]3C(=O)O)cc2Cl)cccc1-c1ccc2c(c1)OCCO2` [Example 1046, (S)-1-(5-Chloro-4-((3-(2,3-dihydrobenzo[b][1,4]dioxin-6-yl)-2-methylbenzyl)oxy)-2-((tetrahydro-2H-pyran-4-yl)methoxy)benzyl)piperidine-2-carboxylic acid] here?
Answer: Its IC50 is 7 nM.

Question: How did the IC50 turn out when `Cc1c(COc2cc(OCC3CCOCC3)c(CNC(C)(CO)CO)cc2Cl)cccc1-c1ccc2c(c1)OCCO2` [Example 1047, 2-((5-Chloro-4-((3-(2,3-dihydrobenzo[b][1,4]dioxin-6-yl)-2-methylbenzyl)oxy)-2-((tetrahydro-2H-pyran-4-yl)methoxy)benzyl)amino)-2-methylpropane-1,3-diol] was run?
Answer: Its IC50 is 5.4 nM.

Question: How did the IC50 turn out when `Cc1c(COc2cc(OCC3CCC3)c(CN[C@](C)(CO)C(=O)O)cc2Cl)cccc1-c1ccc2c(c1)OCCO2` [Example 1048, (R)-2-((5-chloro-2-(cyclobutylmethoxy)-4-((3-(2,3-dihydrobenzo[b][1,4]dioxin-6-yl)-2-methylbenzyl)oxy)benzyl)amino)-3-hydroxy-2-methylpropanoic acid] was run?
Answer: The IC50 was 11.1 nM.

Question: Which IC50 does the source give for `Cc1c(COc2cc(OCC3CCC3)c(CNC(C)(CO)CO)cc2Cl)cccc1-c1ccc2c(c1)OCCO2` [Example 1049, 2-((5-Chloro-2-(cyclobutylmethoxy)-4-((3-(2,3-dihydrobenzo[b][1,4]dioxin-6-yl)-2-methylbenzyl)oxy)benzyl)amino)-2-methylpropane-1,3-diol] here?
Answer: Its IC50 is 14.2 nM.

Question: With `Cc1c(COc2cc(OCC3CCC3)c(CN3CCCC[C@H]3C(=O)O)cc2Cl)cccc1-c1ccc2c(c1)OCCO2` [Example 1050, (S)-1-(5-Chloro-2-(cyclobutylmethoxy)-4-((3-(2,3-dihydrobenzo[b][1,4]dioxin-6-yl)-2-methylbenzyl)oxy)benzyl)piperidine-2-carboxylic acid] as the molecule, how does the IC50 read?
Answer: The IC50 was 59.8 nM.

Question: With `COC(=O)C1(O)CCN(CCOc2cc(OCc3cccc(-c4ccc5c(c4)OCCO5)c3C)c(Cl)cc2CN2CCCC[C@H]2C(=O)O)CC1` [Example 1051, (S)-1-(5-Chloro-4-((3-(2,3-dihydrobenzo[b][1,4]dioxin-6-yl)-2-methylbenzyl)oxy)-2-(2-(4-hydroxy-4-(methoxycarbonyl)piperidin-1-yl)ethoxy)benzyl)piperidine-2-carboxylic acid] as the molecule, how does the IC50 read?
Answer: Its IC50 is 1 nM.

Question: How did the IC50 turn out when `COC(=O)C1(O)CCN(CCOc2cc(OCc3cccc(-c4ccc5c(c4)OCCO5)c3C)c(Cl)cc2CN[C@](C)(CO)C(=O)O)CC1` [Example 1052, (R)-2-((5-Chloro-4-((3-(2,3-dihydrobenzo[b][1,4]dioxin-6-yl)-2-methylbenzyl)oxy)-2-(2-(4-hydroxy-4-(methoxycarbonyl)piperidin-1-yl)ethoxy)benzyl)amino)-3-hydroxy-2-methylpropanoic acid] was run?
Answer: Its IC50 is 1.3 nM.

Question: With `COC(=O)C1(O)CCN(CCOc2cc(OCc3cccc(-c4ccc5c(c4)OCCO5)c3C)c(Cl)cc2CNC(C)(CO)CO)CC1` [Example 1053, Methyl 1-(2-(4-chloro-5-((3-(2,3-dihydrobenzo[b][1,4]dioxin-6-yl)-2-methylbenzyl)oxy)-2-(((1,3-dihydroxy-2-methylpropan-2-yl)amino)methyl)phenoxy)ethyl)-4-hydroxypiperidine-4-carboxylate] as the molecule, how does the IC50 read?
Answer: The IC50 was 1.4 nM.
